Assay results reported in patent US20200030259A1, “Antiestrogens and/or Aromatase Inhibitors for Use in Treating Obesity and Related Symptoms” (Repros Therapeutics Inc., priority 2016, published 2020).

Columns and labels:
[1] = test system: obese men with acquired hypogonadotropic hypogonadism; experiment: Phase 2 clinical trial: morning testosterone; assay type: in vivo, human; conditions: p<0.0001, FIG. 1B
Description: 50 adult male subjects are enrolled in the study with an average age of 43.3 (stdev 9.2), average BMI of 36.8 (stdev 3.2), average waist size of 46.9″ (stdev 4.1) and average body fat percentage of 38.1 (stdev 5.2). Average baseline testosterone levels in the subjects was 221.9 ng/dl (stdev 52.7), average estradiol level in the subjects was 48.1 μg/ml (stdev 14.8) and the average T:E ratio was 4.95 (stdev 1.7; normal range of T:E is 20-25). […] The subjects were provided a low calorie commercial diet for 6 months, gym membership for 15 month and access to a personal trainer for 6 months. Subjects were randomized to receive treatment with 12.5 mg enclomiphene/day, 25 mg enclomiphene/day or placebo via oral capsule over a three month period.

[2] = test system: subjects in need of treatment for obesity; experiment: Treating obesity with an antiestrogen (Example 2); assay type: in vivo; conditions: 5 mg to 100 mg daily or every other day for at least three months
Description: Subjects in need of treatment for obesity are administered an amount of an antiestrogen (e.g. trans-clomiphene or a salt or analogue thereof) in an amount effective to increase LH and FSH to therapeutic levels over a treatment period of sufficient duration to achieve the desired result, preferably for a period of at least 3 months during which an effective dose is administered daily or every other day. FSH and LH levels may be assessed prior to initiating treatment and then monitored through the course of treatment to ensure that therapeutic levels of the pituitary hormones are reached. By way of nonlimiting example, a subject with obesity is administered 5 mg to 100 mg trans-clomiphene daily or every other day for a treatment period of at least three months, preferably at least six months.

[3] = test system: obese men with acquired hypogonadotropic hypogonadism; experiment: Phase 2 clinical trial: lean mass by dual energy X-ray Absorptiometry (DXA); assay type: in vivo, human; conditions: placebo arm lost lean mass, FIG. 2A
From the text: (§1) FIGS. 2A and 2B illustrate lean mass (as a percentage of total mass in kilograms, measured by dual energy X-ray Absorptiometry (DXA)) and total testosterone levels at baseline and at the 3 month and 6 month time points in the subjects described at FIGS. 1A and 1B.
(§2) A randomized double blind placebo-controlled Phase 2 clinical study (duration=6 months) was initiated to study the effects of trans-clomiphene on testosterone, metabolic function, weight, body composition, measures of strength and quality of life assessments (made throughout the study) in obese men with acquired hypogonadotropic hypogonadism.
(§3) 50 adult male subjects are enrolled in the study with an average age of 43.3 (stdev 9.2), average BMI of 36.8 (stdev 3.2), average waist size of 46.9″ (stdev 4.1) and average body fat percentage of 38.1 (stdev 5.2). Average baseline testosterone levels in the subjects was 221.9 ng/dl (stdev 52.7), average estradiol level in the subjects was […] (stdev 14.8) and the average T:E ratio was 4.95 (stdev 1.7; normal range of T:E is 20-25). The top four reported baseline symptoms (by % of enrollees) were (i) fatigue/lack of energy (96%) (ii) depression, irritability, lack of focus (74%) (iii) poor libido (60%) and (iv) muscle weakness (48%). The subjects were provided a low calorie commercial diet for 6 months, gym membership for […] and access to a personal trainer for 6 months. […]

[4] = test system: obese men with acquired hypogonadotropic hypogonadism; experiment: Phase 2 clinical trial: free and total (LCMS) testosterone; assay type: in vivo, human; conditions: enclomiphene arms; FIG. 2B
From the text: as §1, §2, §3

[5] = test system: obese men with acquired hypogonadotropic hypogonadism; experiment: Phase 2 clinical trial: DISF-SR, IWQOL and SF-36 total scores; assay type: in vivo, human; conditions: enclomiphene arms; 3 and 6 months; n=15 per group; FIG. 3
From the text: FIG. 3 illustrates percent improvement from baseline total score at the 3 month and 6 month time points in subjects described at FIGS. 1A and 1B (n=15 per group) in the DISF-SR (Derogatis Interview for Sexual Functioning), IWQOL (Impact of Weight on Quality of Life questionnaire) and SF-36 (Medical Outcomes Study Short Form).
as §2
50 adult male subjects are enrolled in the study with an average age of 43.3 (stdev 9.2), average BMI of 36.8 (stdev 3.2), average waist size of 46.9″ (stdev 4.1) and average body fat percentage of 38.1 (stdev 5.2). Average baseline testosterone levels in the subjects was 221.9 ng/dl (stdev 52.7), average estradiol level in the subjects was […] (stdev 14.8) and the average T:E ratio was 4.95 (stdev 1.7; normal range of T:E is 20-25). The top four reported baseline symptoms (by % of enrollees) were (i) fatigue/lack of energy (96%) (ii) depression, irritability, lack of focus (74%) (iii) poor libido (60%) and (iv) muscle weakness (48%). The subjects were provided a low calorie commercial diet for 6 months, gym membership for […] and access to a personal trainer for 6 months. Subjects were randomized to receive treatment with 12.5 mg enclomiphene/day, 25 mg enclomiphene/day or placebo via oral capsule over a […] period.

## CCN(CC)CCOc1ccc(/C(=C(/Cl)c2ccccc2)c2ccccc2)cc1 [enclomiphene, trans-clomiphene]
[1]; 12.5 mg enclomiphene/day oral capsule with weight loss regimen, baseline ~235 ng/dl
  morning testosterone at six months: ~505 ng/dL
[1]; 25 mg enclomiphene/day oral capsule with weight loss regimen, baseline ~285 ng/dl
  morning testosterone at six months: ~605 ng/dL
[2]
  symptoms of obesity during treatment: reduction in one or more symptoms of obesity is observed
[3]; 12.5 mg enclomiphene arm
  lean mass (percentage of total mass, DXA) at six months: gained lean mass
[3]; 25 mg enclomiphene arm
  lean mass (percentage of total mass, DXA) at six months: gained lean mass
[4]
  free testosterone, baseline to six month time point: increases
  total (LCMS) testosterone, baseline to six month time point: increases
[5]
  percent improvement relative to baseline in DISF-SR total score: statistically significant from baseline
  percent improvement relative to baseline in IWQOL total score: statistically significant from baseline
  percent improvement relative to baseline in SF-36 total score: statistically significant from baseline
